Results taken from PubChem BioAssay (NCI).
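Growth conditions: 96-well plates. Treatment: test compound, 48 hours, 5 concentrations. Analysis: linear interpolation between bracketing concentrations; unreached endpoints set to highest concentration. TGI: concentration producing complete growth inhibition.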

How the values were obtained:
Experiment in all cases: NCI-60 cell line screen, 48 h
[1] = test system: BT-549 breast
[2] = test system: NCI-H460 lung
[3] = test system: NCI-H226 lung
[4] = test system: TK-10 renal
[5] = test system: SK-MEL-5 melanoma
[6] = test system: MOLT-4 leukemia
[7] = test system: SNB-19 CNS
[8] = test system: PC-3 prostate
[9] = test system: HT29 colon
[10] = test system: 786-0 renal
[11] = test system: MCF7 breast
[12] = test system: OVCAR-4 ovarian
[13] = test system: SF-268 CNS
[14] = test system: OVCAR-5 ovarian
[15] = test system: M14 melanoma
[16] = test system: DU-145 prostate
[17] = test system: ACHN renal
[18] = test system: MDA-MB-435
[19] = test system: U251 CNS
[20] = test system: K-562 leukemia
[21] = test system: HL-60(TB) leukemia
[22] = test system: SF-295 CNS
[23] = test system: HCT-15 colon
[24] = test system: UO-31 renal
[25] = test system: COLO 205 colon
[26] = test system: SK-OV-3 ovarian
[27] = test system: RPMI-8226 leukemia
[28] = test system: MDA-N
[29] = test system: OVCAR-3 ovarian
[30] = test system: SNB-75 CNS
[31] = test system: NCI-H23 lung
[32] = test system: HCT-116 colon
[33] = test system: SK-MEL-28 melanoma
[34] = test system: UACC-62 melanoma
[35] = test system: HOP-62 NSCLC
[36] = test system: IGROV1 ovarian
[37] = test system: KM12 colon
[38] = test system: NCI/ADR-RES ovarian
[39] = test system: SR leukemia
[40] = test system: MDA-MB-231 breast
[41] = test system: LOX IMVI melanoma
[42] = test system: T-47D breast
[43] = test system: SN12C renal
[44] = test system: OVCAR-8 ovarian
[45] = test system: A498 renal
[46] = test system: CCRF-CEM leukemia
[47] = test system: SW-620 colon
[48] = test system: SF-539 CNS
[49] = test system: A549 NSCLC
[50] = test system: HS 578T breast
[51] = test system: CAKI-1 renal
[52] = test system: SK-MEL-2 melanoma
[53] = test system: NCI-H522 lung
[54] = test system: UACC-257 melanoma
[55] = test system: EKVX NSCLC
[56] = test system: MALME-3M melanoma
[57] = test system: RXF 393 renal
[58] = test system: HOP-92 NSCLC
[59] = test system: HCC-2998 colon

For COc1cc([N+](=O)[O-])c(S(=O)(=O)O)cc1NS(=O)(=O)c1ccc(C)cc1, the TGI [1] was greater than 100 µM, the TGI [2] was greater than 100 µM and the TGI [3] was greater than 100 µM. The TGI [4] was greater than 100 µM, the TGI [5] was greater than 100 µM and the TGI [6] was greater than 100 µM. For the same compound, the TGI [7] was greater than 100 µM, the TGI [8] was greater than 100 µM and the TGI [9] was greater than 100 µM. The TGI [10] was greater than 100 µM, the TGI [11] was greater than 100 µM and the TGI [12] was greater than 100 µM. The TGI [13] was greater than 100 µM, the TGI [14] was greater than 100 µM and the TGI [15] was greater than 100 µM. For the same compound, the TGI [16] was greater than 100 µM, the TGI [17] was greater than 100 µM and the TGI [18] was greater than 100 µM. It also gave a TGI [19] greater than 100 µM, a TGI [20] greater than 100 µM and a TGI [21] greater than 100 µM. The TGI [22] was greater than 100 µM, the TGI [23] was greater than 100 µM and the TGI [24] was greater than 100 µM. It also gave a TGI [25] greater than 100 µM, a TGI [26] greater than 100 µM and a TGI [27] greater than 100 µM. For the same compound, the TGI [28] was greater than 100 µM, the TGI [29] was greater than 100 µM and the TGI [30] was greater than 100 µM. It also gave a TGI [31] greater than 100 µM, a TGI [32] greater than 100 µM and a TGI [33] greater than 100 µM. For the same compound, the TGI [34] was greater than 100 µM, the TGI [35] was greater than 100 µM and the TGI [36] was greater than 100 µM. It also gave a TGI [37] greater than 100 µM, a TGI [38] greater than 100 µM and a TGI [39] greater than 100 µM. The TGI [40] was greater than 100 µM, the TGI [41] was greater than 100 µM and the TGI [42] was greater than 100 µM. The TGI [43] was greater than 100 µM, the TGI [44] was greater than 100 µM and the TGI [45] was greater than 100 µM. For the same compound, the TGI [46] was greater than 100 µM, the TGI [47] was greater than 100 µM and the TGI [48] was greater than 100 µM. The TGI [49] was greater than 100 µM, the TGI [50] was greater than 100 µM and the TGI [51] was greater than 100 µM. For the same compound, the TGI [52] was greater than 100 µM, the TGI [53] was greater than 100 µM and the TGI [54] was greater than 100 µM. For the same compound, the TGI [55] was greater than 100 µM.

CC(C)(C)OC(=O)NC1CC=CCC1NC(=O)OC(C)(C)C (centres undefined) showed a TGI [1] greater than 100 µM, a TGI [2] greater than 100 µM and a TGI [3] greater than 100 µM. It also gave a TGI [56] greater than 100 µM, a TGI [4] greater than 100 µM and a TGI [5] greater than 100 µM. It also gave a TGI [6] greater than 100 µM, a TGI [7] greater than 100 µM and a TGI [8] greater than 100 µM. It also gave a TGI [9] greater than 100 µM, a TGI [10] greater than 100 µM and a TGI [11] greater than 100 µM. For the same compound, the TGI [12] was greater than 100 µM, the TGI [57] was greater than 100 µM and the TGI [13] was greater than 100 µM. The TGI [14] was greater than 100 µM, the TGI [15] was greater than 100 µM and the TGI [16] was greater than 100 µM. For the same compound, the TGI [17] was greater than 100 µM, the TGI [18] was greater than 100 µM and the TGI [19] was greater than 100 µM. For the same compound, the TGI [20] was greater than 100 µM, the TGI [21] was greater than 100 µM and the TGI [22] was greater than 100 µM. The TGI [23] was greater than 100 µM, the TGI [58] was greater than 100 µM and the TGI [24] was greater than 100 µM. The TGI [25] was greater than 100 µM, the TGI [26] was greater than 100 µM and the TGI [27] was greater than 100 µM. It also gave a TGI [28] greater than 100 µM, a TGI [29] greater than 100 µM and a TGI [30] greater than 100 µM. For the same compound, the TGI [31] was greater than 100 µM, the TGI [32] was greater than 100 µM and the TGI [33] was greater than 100 µM. For the same compound, the TGI [34] was greater than 100 µM, the TGI [35] was greater than 100 µM and the TGI [36] was greater than 100 µM. For the same compound, the TGI [59] was greater than 100 µM, the TGI [37] was greater than 100 µM and the TGI [38] was greater than 100 µM. For the same compound, the TGI [39] was greater than 100 µM, the TGI [40] was greater than 100 µM and the TGI [41] was greater than 100 µM. The TGI [42] was greater than 100 µM, the TGI [43] was greater than 100 µM and the TGI [44] was greater than 100 µM. The TGI [45] was greater than 100 µM, the TGI [46] was greater than 100 µM and the TGI [47] was greater than 100 µM. It also gave a TGI [48] greater than 100 µM, a TGI [49] greater than 100 µM and a TGI [50] greater than 100 µM. It also gave a TGI [51] greater than 100 µM, a TGI [52] greater than 100 µM and a TGI [53] greater than 100 µM. For the same compound, the TGI [54] was greater than 100 µM.

In the case of CCSc1c(C)c2c(n(Cc3ccc(OC)cc3)c1=O)Cc1ccccc1C2, the TGI [1] was 93.4 µM, the TGI [2] was 27.7 µM and the TGI [3] was greater than 100 µM. The TGI [56] was 45.7 µM, the TGI [4] was 73.3 µM and the TGI [5] was 77.4 µM. The TGI [6] was 14.8 µM, the TGI [7] was greater than 100 µM and the TGI [8] was 84.3 µM. It also gave a TGI [9] of 72.2 µM, a TGI [10] of 28.9 µM and a TGI [11] greater than 100 µM. It also gave a TGI [12] greater than 100 µM, a TGI [57] greater than 100 µM and a TGI [13] greater than 100 µM. It also gave a TGI [14] greater than 100 µM, a TGI [15] of 27.3 µM and a TGI [16] greater than 100 µM. It also gave a TGI [17] of 84.2 µM, a TGI [18] greater than 100 µM and a TGI [19] of 82.4 µM. For the same compound, the TGI [20] was 60.9 µM, the TGI [21] was 31.6 µM and the TGI [22] was greater than 100 µM. It also gave a TGI [23] greater than 100 µM, a TGI [24] greater than 100 µM and a TGI [25] greater than 100 µM. For the same compound, the TGI [26] was greater than 100 µM, the TGI [28] was greater than 100 µM and the TGI [29] was greater than 100 µM. It also gave a TGI [30] greater than 100 µM, a TGI [31] greater than 100 µM and a TGI [32] of 32.5 µM. It also gave a TGI [33] greater than 100 µM, a TGI [34] greater than 100 µM and a TGI [35] greater than 100 µM. For the same compound, the TGI [36] was 54.2 µM, the TGI [59] was 41.6 µM and the TGI [37] was greater than 100 µM. It also gave a TGI [38] of 74.5 µM, a TGI [39] of 21.3 µM and a TGI [40] of 94.7 µM. It also gave a TGI [41] of 76.2 µM, a TGI [42] greater than 100 µM and a TGI [43] of 46.5 µM. It also gave a TGI [44] greater than 100 µM, a TGI [46] greater than 100 µM and a TGI [47] of 84 µM. For the same compound, the TGI [48] was 80.1 µM, the TGI [49] was greater than 100 µM and the TGI [50] was greater than 100 µM. The TGI [51] was greater than 100 µM, the TGI [52] was 66 µM and the TGI [53] was 40.1 µM. It also gave a TGI [54] of 44.3 µM and a TGI [55] of 96.9 µM.
